Test results taken from patent US9604899B2, “Bipolar trans carotenoid salts and their uses” (Diffusion Pharmaceuticals LLC, priority 2002, dated 2017).

Tests used:
[1] = solubility in sodium carbonate-deionized water solution (pH 8.0); assay type: physicochemical; conditions: pH 8, aqueous buffer, thermodynamic from solid, pH 8.0, room temperature, read-out: solubility in water adjusted to pH 8.0 with very dilute sodium carbonate
Description: A BTCS such as TSC dissolves in very dilute sodium carbonate solutions. A dilute, eg 0.00001-0.001M, solution of sodium carbonate can be added, dropwise, to deionized water until the pH is 8.0 (the pH of deionized water is usually 5-6). This only takes a few drops of the very dilute sodium carbonate per, say, 50 mls of deionized water. This sodium carbonate-deionized water solution is capable of completely dissolving a large amount of TSC (around 10 mg/ml)—which is remarkable considering the hydrophobicity of the carotenoid portion of the BTCS.

[2] = dissolution in normal (isotonic) saline and other salt solutions; assay type: physicochemical; conditions: up to several milligrams per ml added
Description: Large volumes (as much as 3 times the estimated blood loss) of isotonic saline (also called normal saline) are infused as a treatment for hemorrhagic shock. The isotonic saline contains 9 g NaCl per liter of water so as not to disturb the ionic strength of the plasma once it is infused into the body. […] About 50% of the TSC dissolves in normal saline no matter how much TSC is added (up to several milligrams per ml), which means that undissolved particles of TSC are still present. […] The actual composition of the stock solution can be verified using UV-visible spectroscopy. This stock solution can be added to normal saline and the TSC remains dissolved.
This method can be used to dissolve a BTCS in other types of sodium chloride solutions, as well as in solutions of other salts such as KCl, Na2SO4, lactate, etc. Several, eg 1-3 mg/ml, can be put into solution in this manner.

[3] = solubility in common organic solvents; assay type: physicochemical; conditions: chloroform, DMSO, pyridine, methanol, acetone, glacial acetic acid
Description: Attempts were made to dissolve TSC in order to obtain a ^1H NMR spectrum. […] The TSC produced from this project was characterized by IR, UV, HPLC and elemental analyses. […] UV and HPLC were consistent with authentic TSC.^7 Elemental analyses gave satisfactory values.

[4] = diffusivity of oxygen through aqueous solutions
hemorrhaged rats [5] = assay: hemorrhagic shock in rats (Roy et al); conditions: rat, in vivo
Description: In Roy et al, Shock 10, 213-7. (1998), hemorrhaged rats (55% blood volume) were given a bolus of trans sodium crocetinate (TSC) after the hemorrhage ended, followed by saline after another 30 minutes. […] Whole-body oxygen consumption increased in the TSC group, reaching 75% of normal resting value after about 15 minutes.

[6] = TSC by inhalation, drug in blood stream; assay type: in vivo, rat; conditions: rats
Description: TSC has been given to rats via an inhalation route. Ten rats were given TSC directly into the lungs. This was done by inserting a tube into the trachea, and nebulizing 0.2 ml of TSC solution (TSC dissolved in dilute sodium carbonate solution) with about 3 to 6 mls of air. For all dosages studied (0.5-2 mg/kg), about 20% of the drug was present in the blood stream within one minute after it was given.

[7] = oral administration of TSC (gavage), drug in blood stream; assay type: in vivo, rat; conditions: two rats, 15 to 30 minutes after being given
Description: TSC has been shown, in rats, to be absorbed into the blood stream when administered orally (via a gavage technique). […] The maximum amount absorbed orally actually occurred earlier than that time.

[8] = simulated TSC molecule surrounded with water molecules; cited from earlier work
hemorrhaged rats [9] = conditions: cited from earlier work
[10] = test system: rat model of acute hypoxia; conditions: 10% oxygen air mixture, TSC given after 10 minutes; cited from earlier work
[11] = stability (aqueous solution, dry form); conditions: tap, distilled, deionized water
[12] = background statement; cited from earlier work

Row | SMILES | solubility [1] [µg/mL] | fraction of added TSC that dissolves in normal saline [2] | solubility in most common organic solvents [3] | increase of diffusivity of oxygen through aqueous solutions [4] | oxygen consumption of rats undergoing hemorrhagic shock (hemorrhaged rats [5]) | period the drug was present in the blood stream ([6]; inhalation, 0.8-1.6 mg/kg) | fraction of the drug present in the blood stream ([6]; nebulized into trachea, 0.5-2 mg/kg, within one minute) | fraction of the dosage given present in the blood stream [7] [%] | computational increase in diffusivity [8] [%] | whole-body oxygen consumption (hemorrhaged rats [9]; hemorrhaged rats, after about 15 minutes) | survival (hemorrhaged rats [9]; rats hemorrhaged 55% blood volume, TSC bolus after hemorrhage, saline after 30 minutes) | survival and hemodynamic stability [10] | solubility in deionized water versus normal water (solubility in water) | solubility (solubility in water; water) [µg/mL] | stability of solutions in water [11] | solubility in water [12]
1 | CC(/C=C/C=C(\C)C(=O)[O-])=C\C=C\C=C(C)\C=C\C=C(/C)C(=O)[O-].[Na+].[Na+] [TSC, Trans Sodium Crocetinate] | ~10000 | About 50% | practically insoluble | about 30% | increase the oxygen consumption | at least two hours | about 20% | 1 to 2 | ~30 | 75 % of normal resting value | All of the TSC-treated animals lived | all survived with good hemodynamic stability for over two hours | more soluble in deionized water | ~10000 | only stable if the pH is adjusted so as to make the solution basic | 
2 | CC(/C=C/C=C(\C)C(=O)O)=C\C=C\C=C(C)\C=C\C=C(/C)C(=O)O [crocetin] |  |  |  |  |  |  |  |  |  |  |  |  |  |  |  | only sparingly soluble in water
3 | CC(/C=C/C=C(\C)C(=O)O[C@@H]1O[C@H](CO[C@@H]2O[C@H](CO)[C@@H](O)[C@H](O)[C@H]2O)[C@@H](O)[C@H](O)[C@H]1O)=C\C=C\C=C(C)\C=C\C=C(/C)C(=O)O[C@@H]1O[C@H](CO[C@@H]2O[C@H](CO)[C@@H](O)[C@H](O)[C@H]2O)[C@@H](O)[C@H](O)[C@H]1O [crocin] |  |  |  |  |  |  |  |  |  |  |  |  |  |  |  | significant solubility in water
